Experimental data from publication PMC5918173, “Characterization of Transglutaminase 2 activity inhibitors in monocytes in vitro and their effect in a mouse model for multiple sclerosis” (PLoS ONE, 2018).

Legend:
[1] = system: fibronectin assembly; parameters: method as in PMID 26133787, PMID 17099729; conditions: cited from earlier work
[2] = molecular target: T1, TG2-fibronectin (FN42) interaction (Homo sapiens, UniProt P21980); test: TG2 interaction with fibronectin (FN42) ELISA; assay type: binding; conditions: 5 and 15 μM, with or without 1 mM CaCl2, Fig 2E, 2F
T1 construct: purchased Zedira
T1 sequence (P21980 1-687): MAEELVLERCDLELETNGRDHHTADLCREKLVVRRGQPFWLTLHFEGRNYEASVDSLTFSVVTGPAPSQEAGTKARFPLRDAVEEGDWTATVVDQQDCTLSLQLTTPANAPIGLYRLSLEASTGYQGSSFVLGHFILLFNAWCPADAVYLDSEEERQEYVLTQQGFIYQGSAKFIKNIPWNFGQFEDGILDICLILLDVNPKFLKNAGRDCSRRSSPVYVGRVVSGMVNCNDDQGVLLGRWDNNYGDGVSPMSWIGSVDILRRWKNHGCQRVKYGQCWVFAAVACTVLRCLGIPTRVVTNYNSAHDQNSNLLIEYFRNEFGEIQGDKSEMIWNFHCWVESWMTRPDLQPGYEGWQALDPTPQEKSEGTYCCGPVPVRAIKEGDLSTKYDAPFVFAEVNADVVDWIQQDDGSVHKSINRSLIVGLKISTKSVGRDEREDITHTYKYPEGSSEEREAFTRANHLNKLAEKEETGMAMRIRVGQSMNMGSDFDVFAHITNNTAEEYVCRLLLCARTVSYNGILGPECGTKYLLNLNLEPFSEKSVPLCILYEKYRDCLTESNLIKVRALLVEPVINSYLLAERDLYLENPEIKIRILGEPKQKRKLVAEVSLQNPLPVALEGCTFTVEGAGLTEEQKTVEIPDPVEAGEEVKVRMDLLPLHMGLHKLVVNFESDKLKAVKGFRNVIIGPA
Procedure: To determine the potential effect of BJJF078 and ERW1041E on the interaction of TG2 with fibronectin, ELISA experiments were performed as described previously. Briefly, 96 well ELISA plates (Nunc, Maxisorp) were coated with 100 μg/ml mouse anti his-tag monoclonal antibody (Roche) in PBS at 4°C overnight. This was followed by simultaneous washing and blocking with 0.5% BSA in PBS (3x 10 min). Per well 50 μl of a 10 nM human recombinant TG2 (his-tagged, Zedira) solution in PBS was added. Into each well (triplicates) either DMSO (control, 1% final concentration) or TG2 inhibitors (BJJF078, ERW1041E, final concentration 5 and 15 μM in 1% DMSO) were added. As a positive control similar concentrations of TG53, a small molecule that inhibits the interaction between TG2 and fibronectin was added (kindly provided by Prof D. Matei, Northwestern University, Chicago, USA). […] After 1 h incubation at RT, 50 μl of 10 nM FN42-biotin solution (kindly provided by Prof D. Matei) was added to the wells. After an additional 1 h incubation at RT and washing steps (3x 10 min) with 0.5% BSA in PBS, 100 μl streptavidin-HRPO conjugate (from kit opr001, Covalab) was added and incubated for 1 h at RT. This was followed by another series of washes and the colour reaction started with 100 μl of 3,3′,5,5′ tetramethylbenzidine substrate (TMB, from kit opr001, Covalab). After sufficient colour development (15 min), the reaction was stopped with 1M HCl and absorbance was measured at 450 nm.

Compound	effect on fibronectin assembly [1]	effect on binding of TG2 to fibronectin (FN42) [2]
O=C(N[C@@H](Cc1ccc(O)cc1)C(=O)NCC1CC(Br)=NO1)OCc1ccccc1 (some centres unmarked) [KCC009]	can interfere with fibronectin assembly	–
COc1ccc(Cl)cc1C(=O)Nc1ccc(Nc2nc(C)cc(N(C)C)n2)cc1 [TG53]	–	dose-dependent reduction
